Test results taken from US5631263A, “Use of delta opioid receptor antagonists to treat immunoregulatory disorders” (Minneapolis Medical Research Foundation, priority 1995, dated 1997).

Columns and labels:
[1] = system: splenic mononuclear cells (MNC); assay: depressed AMLR of splenic MNC from rats infected with rat coronavirus; format: cell-based; details: FIG. 2
Procedure: Rats were anesthetized with a mixture of 8 mg/ml keta/nine and 2 mg/ml acepromazine (dose=0.1 ml/100 g body weight) and the spleens were removed aseptically. The animals were exsanguinated while under anesthesia. Splenic MNC were released from the surrounding connective tissue by dispersing through a wire mesh. The red blood cells were removed by density gradient centrifugation on ficol-hypaque (Lymphocyte Separation Medium, LSM, Organon Tecknika, Durham, N.C.). The purified MNC were washed in Hanks Balanced Salt Solution containing 1% gelatin and 2 mM EDTA and resuspended in RPMI-1640 medium containing 5% Fetal Bovine Serum (FBS), 100 U/ml penicillin, 100 ug/ml streptomycin and 5×10^-5 M 2-mercaptoethanol. In some experiments, TCM™, a defined medium supplement (CELOX, Minneapolis, Minn.), was used instead of FBS.
Purified MNC were placed in 96-well round bottom plates at 2×10^5cells/well in a total volume of 0.2 ml and incubated for 5 days at 37° C. […] The cells were then harvested onto glass fiber filter paper and counted in a Beckman (Fullerton, Calif.) scintillation counter. The results are calculated as the mean counts per minute of triplicate wells, and are expressed as percent of control (cpm suppressed AMLR/cpm control AMLR). […]

[2] = system: splenic MNC (T and non-T cells); assay: depressed AMLR of splenic cells from mice infected with mCMV; format: cell-based; details: for reversal of AMLR suppressed by CMV 10^-4: AMLR suppressed 42%; for reversal of AMLR suppressed by CMV 10^-2: AMLR suppressed 20%
Procedure: Mice were injected i.p. with serial 10-fold dilutions of a stock mCMV solution. Dilutions of stock virus ranged from 10^-2 to 10^-6. Mice were sacrificed after 10 days of infection. Control mice were injected with saline.
Splenic MNC from CMV-infected and uninfected mice were purified by density gradient centrifugation on LSM, as described above for the rat splenic MNC. T and non-T cell fractions were separated by nylon wool columns as disclosed by M. H. Julius et al., Eur. J. Immunol., 3, 645 (1973). The T-enriched cells were used as responder cells. The non-T cells were treated with mitomycin-C to stop their proliferation, as described by K. M. Linner et al., Endocrinol., 128, 717 (1991) and used as stimulator cells. Autologous cell cultures were then set up, with equal numbers (2×10^5) of responder T and stimulator non-T cells being cultured in the 96-well microtiter plates. Cells were cultured for 5 days. To some wells, NTI at 10^-10, 10^-12 or 10^-14 M, concentrations determined to be optimal from the rat AMLR studies, was added for the duration of the culture period. ^3 H-thymidine was added to each well for the last 18 hr of incubation, and the cultures were harvested and counted as described above.

[3] = target: μ opioid receptor (Cavia porcellus, UniProt A0ACM8Q262); assay: antagonism of morphine in the GPI (Example 7); format: cell-based, guinea pig; details: morphine as agonist, read-out: Ke, μ (Table VII)
Procedure: 1. Guinea Pig Ileal Longitudinal Muscle (GPI). Ilea from guinea pigs were taken approximately 10 cm from the ileocaecal junction, and a strip of longitudinal muscle with the myenteric plexus attached was prepared by method of Rang et al., Brit. J. Pharmacol., 22, 356 (1964), the disclosure of which is incorporated by reference herein. A 1 cm portion of this strip was then mounted between two platinum electrodes placed in a 10 ml organ bath and connected to an isometric transducer. Contractions were recorded on a polygraph. […] The organ bath was maintained at 36°-37° C. The longitudinal muscle strip was allowed to equilibrate with continuous stimulation for a minimum of 90 min.

[4] = target: mu opioid receptors; details: read-out: Ke, M (morphine); GPI, agonist morphine; antagonist 100 or 200 nM, 15 min; cited from earlier work
[5] = system: delta opioid receptors; details: 20 mg/kg s.c.; in words; cited from earlier work
[6] = system: mu opioid receptors; details: 20 mg/kg s.c.; in words; cited from earlier work
[7] = system: kappa opioid receptors; details: 20 mg/kg s.c.; in words; cited from earlier work
[8] = system: renal allograft; details: in words; cited from earlier work
[9] = system: mixed lymphocyte responses; details: cited from earlier work
[10] = system: allogeneic murine spleen cells; details: cited from earlier work
[11] = both in vivo and in vitro; cited from earlier work
[12] = system: immune function; details: both in vivo and in vitro; cited from earlier work

## Oc1ccc2c3c1O[C@H]1c4[nH]c5ccccc5c4C[C@@]4(O)[C@@H](C2)N(CC2CC2)CC[C@]314 [Compound 1, 17-(cyclopropylmethyl)-6,7-dehydro-3,14β-dihydroxy-4,5α-epoxy-6,7-2',3'-indolmorphinan]
[1]
  reversal of depressed AMLR: reversed
[2]; FIGS. 4A and 4B
  reversal of the suppressed AMLR caused by CMV infection: can reverse the suppressed AMLR
[2]; NTI 10^-10 M
  reversal of AMLR suppressed by CMV 10^-4: partially
[2]; NTI 10^-12 and 10^-10 M
  reversal of AMLR suppressed by CMV 10^-2: completely reversed
[2]; NTI 10^-14 M-10^-12 M
  reversal of AMLR suppressed by CMV 10^-4: reversed completely
[2]; NTI 10^-14 M
  reversal of AMLR suppressed by CMV 10^-2: not by NTI at 10^-14 M
[3]
  Kb: […]
[4]
  Kb: […]
[5]
  block of writhing inhibition due to DSLET: effectively blocked
[6]
  antagonism of the effect of morphine: without significantly antagonizing
[7]
  antagonism of the effect of U50488H: without significantly antagonizing
[8]
  allograft survival: prolong allograft survival
[9]; in both in vitro responses
  effectiveness compared with cyclosporine A (CsA): less effective than cyclosporine A (CsA)
[9]; in vitro, in words
  allogeneic and xenogeneic mixed lymphocyte responses: suppress in vitro allogeneic and xenogeneic mixed lymphocyte responses
[10]
  MLR suppression: strongly suppresses the MLR
[11]
  toxicity: non-toxic
[12]
  immunosuppression: immunosuppressive
